Key:
K-562 leukemia cell line = assay: NCI DTP in vitro screen, K-562; format: cell-based, human; conditions: K-562, in words
Experimental: For example, the following methodology, which is currently employed by the NCI, can be used to assess the GI50 of a candidate compound of Formula I in the selected cancer cell lines. Briefly, cell suspensions are diluted (5000-40,000 cells per well) and 100 μL of the diluted cell suspension is added into 96-well microtiter plates. Inoculates are allowed a preincubation period of 24 h at 37° C. for stabilization. Dilutions at twice the intended test concentration of the candidate compound are added at time zero in 100 μL aliquots to the microtiter plate wells. Test compounds are generally evaluated at five 10-fold dilutions. In routine testing, the highest well concentration is usually 10E-4 M, but this may be adjusted depending on the compound being tested. […] The cells are then assayed by using the sulforhodamine B assay (see, for example, Skehan, P., et al. (1990) JNCI, J. Natl. Cancer Inst. 82, 1107-1112; and Chen, S. F., et al. (1990) Proc. Am. Assoc. Cancer Res. 31, A2644) employing a plate reader which can be used to read the optical densities.
Compounds 2 and 3 were evaluated for their antiproliferative effects in a panel of 60 human cancer cell lines as part of the in vitro anticancer screening services provided by the DTP (Developmental Therapeutics Program) of the US National Cancer Institute (NCI).

p21 = p21 mRNA in HT-29 tumour xenografts, RT-PCR; format: in vivo, CD-1 female nude mice; conditions: HT-29 xenograft, versus vehicle
Experimental: The ability of compound 3 to modulate expression of p21 in vivo was determined using the HT-29 colon tumour xenograft model as described in Example 26. The expression of p21 mRNA was analyzed by real-time polymerase chain reaction analysis using the comparative CT method as described in Example 30.

[1] = tested on: copper transporter, Ctrl also known as SLC31A1; assay: Copper transporter Ctr1 (SLC31A1) gene expression in HT-29 cells, RT-PCR; format: cell-based, human
Experimental: The effect of compound 3 and compound 7 treatment on the expressions of a zinc-storage protein meallothionein 1A (MT1A) (FIG. 29A), a copper transporter, Ctrl also known as SLC31A1 (FIG. 29B) and an iron transporter; transferrin receptor 1 (TfR1) (FIG. 29C) were measured and compared with a known zinc chelator TPEN, a copper chelator tetramine and an iron chelator DFO, respectively. Despite in vitro chelation of Cu^+2, increase in copper-sensitive gene after compound 3 treatment was transient.

Sp1 = Sp1 binding to Cyclin D1 promoter, ChIP, HT-29; format: cell-based, human; conditions: HT-29, ChIP
Experimental: Based on overlapping transcription factor binding sites on Cyclin D1 gene promoter region (FIG. 33A), increased binding of a negative regulator KLF4 may replace the binding of a positive regulator Sp1. In vivo KLF4 and Sp1 binding to Cyclin D1 promoter was shown by chromatin immuno-precipitation assay (ChIP) (FIG. 33B).
Chromatin immunoprecipitation (ChIP) was performed as follows. Cell lysates from HT-29 cells (5.5×10^5 cells in three 15 cm-culture plates in each experimental group) were prepared at the end of the indicated experiments, and ChIP assays were performed using anti-KLF4 and anti-Sp1 antibodies (Santa Cruz Biotechnology Inc.) and ChIP-ITTM kit (Active Motif, Carlsbad, Calif.) by following the manufacturer's instruction. The primers encompassing-231 to -92 region of Cyclin D1 promoter; 5′ primer (5′-CGGACTACAGGGGCAA-3′) [SEQ ID NO:1] and 3′ primer (5′-GCTCCAGGACTTTGCA-3′) [SEQ ID NO:2] were synthesized at Invitrogen.

Cc1[nH]c2ccccc2c1-c1nc2c3cccnc3c3ncccc3c2[nH]1 [Compound 3]
GI50 (K-562 leukemia cell line): nanomolar range
p21 expression in tumour xenografts (p21): induced the expression of p21
copper-sensitive gene expression [1]: transient
Sp1 binding to Cyclin D1 promoter (Sp1): decreased Sp1 binding

From patent publication US8148392B2, “2-indolyl imidazo [4,5-d] phenanthroline derivatives and their use in the treatment of cancer” (Lorus Therapeutics Inc., priority 2005, dated 2012)
